Results on two compounds are retold here after publication PMC4977651, “Molecular features of biguanides required for targeting of mitochondrial respiratory complex I and activation of AMP-kinase” (BMC Biology, 2016).

For assay [1], the target named is bovine heart mitochondrial membranes (complex I) (Bos taurus, UniProt P03887+P03898+P17694+P42026). Briefly: NADH:O2 oxidoreduction by bovine heart mitochondrial membranes (complexes I-III-IV). Format: biochemical. The procedure:
(§1) Complex I and mitochondrial membranes were prepared from Bos taurus (bovine) heart. Intact mitochondria were isolated from rat liver and mouse heart and liver. Membranes were prepared from mouse heart mitochondria by 5 s bursts of sonication at 4 °C and collected by centrifugation (75,000 × g, 1 h).
Assays were performed at 32 °C in a SpectraMax 96-well plate reader. NADH:decylubiquinone oxidoreduction by complex I at 0.5 μg mL^−1 was measured in 20 mM Tris-HCl (pH 7.2), 0.15 % soy bean asolectin (Avanti Polar Lipids), and 0.15 % 3-((3-cholamidopropyl)dimethylammonium)-1-propanesulfonate (CHAPS, Merck Chemicals Ltd), with 200 μM decylubiquinone and 200 μM NADH, and monitored using ε340–380(NADH) = 4.81 mM^−1 cm^−1 [23]. Catalysis was initiated by addition of NADH and maximal rates determined by linear regression. NADH:O2 oxidoreduction by membranes was measured similarly but using 5 μg mL^−1 membranes in 10 mM Tris-HCl (pH 7.4) and 250 mM sucrose using 200 μM NADH and supplemented with 0.15 mM horse heart cytochrome c (Sigma-Aldrich Ltd.). Succinate:O2 oxidoreduction was measured using 40 μg mL^−1 membranes in 5 mM succinate in 10 mM Tris-HCl (pH 7.4) as described previously. Control experiments included NaCl (to match the ionic strength) or DMSO, as appropriate.
Experimental values are reported as mean averages ± standard deviation (SD) of technical replicates for large sample sizes and mean averages ± standard error of the mean (SEM) of technical replicates for small sample sizes. Data were analyzed by the unpaired two-tailed Student’s t test. IC50 values were determined using the standard dose-effect relationship (activity (%) = 100 × IC50 / (IC50 + [inhibitor]^m) with the Hill Slope (m) set to unity for purified complex I) and are reported with 95 % confidence intervals.

A further assay concerns permeabilized MDBK cells. Kind of assay: ADP-stimulated rotenone-sensitive OCR in permeabilized MDBK cells. Format: cell-based, Bos taurus. More on the design: rotenone sensitive OCR after ADP stimulation, average / rotenone sensitive OCR after ADP stimulation: unit not given here. The note with it: for rotenone sensitive OCR after ADP stimulation, % of control, average / rotenone sensitive OCR after ADP stimulation, average / rotenone sensitive OCR after ADP stimulation / rotenone sensitive OCR after ADP stimulation, % of control: MDBK permeabilised cells; for rotenone sensitive OCR after ADP stimulation, % of control, average / rotenone sensitive OCR after ADP stimulation, average: average of replicates; for rotenone sensitive OCR after ADP stimulation / rotenone sensitive OCR after ADP stimulation, % of control: individual replicates. As to the method: For permeabilized cell experiments, cells were seeded into XF96 plates at 0.9–1.1 × 10^4 per well and incubated for 48 h at 37 °C in 5 % CO2. Then, the growth medium was exchanged for assay buffer containing 3 nM plasma membrane permeabilizer ‘PMP’ (Seahorse Biosciences Inc.), 10 mM glutamate, 10 mM malate, 220 mM mannitol, 70 mM sucrose, 10 mM KH2PO4, 5 mM MgCl2, 1 mM EGTA, 0.2 % fatty acid-free bovine serum albumin (BSA), and 2 mM HEPES (pH 7.4 at 37 °C). […] The biguanides were allowed to accumulate for 30 min, then respiration was […] by the addition of 4 mM ADP. Rotenone was added (2 μM) at the end of the experiment.
Rotenone-sensitive OCRs were calculated by subtracting the rotenone-insensitive rates (determined at the end of the experiment). OCRs were normalized by dividing by the OCR recorded immediately prior to the addition of biguanide. For rate of uptake calculations, the OCRs at time points after biguanide addition were divided by the OCRs at the same time points in control experiments. Data from wells with failed port injections were excluded from the analyses. The respiratory control ratio (RCR) values (state III versus state IV respiration) were ~11 and ~6 for permeabilized MDBK and 143B cells, respectively.

Another assay relates to mouse heart mitochondria. Briefly: ADP-stimulated rotenone-sensitive OCR in isolated mouse heart mitochondria. Format: biochemical. On the set-up: rotenone sensitive OCR after ADP stimulation, individual replicates / rotenone sensitive OCR after ADP stimulation, average / rotenone sensitive OCR after 15 mins, average: unit not given here. The note with it: for rotenone sensitive OCR after ADP stimulation, % of control, average / rotenone sensitive OCR after ADP stimulation, average: average of replicates; for rotenone sensitive OCR after ADP stimulation, % of control, individual replicates: replicate 1-11; for rotenone sensitive OCR after ADP stimulation, individual replicates: replicate 1-12. The procedure: as §1
Isolated mitochondria were monitored using a Seahorse XF96 extracellular flux analyzer at 32 °C. Mouse heart mitochondria, and mouse and rat liver mitochondria were plated into XF96 plates at 4 and 16–20 μg per well, respectively, in 220 mM mannitol, 70 mM sucrose, 10 mM KH2PO4, 5 mM MgCl2, 1 mM EGTA, 0.2 % fatty acid-free BSA, and 2 mM HEPES (pH 7.4 at 37 °C) with 10 mM glutamate and 10 mM malate and adhered by centrifugation (2000 × g, 20 min, 4 °C). The medium was supplemented with a further 5 mM glutamate and 5 mM malate and the mitochondria incubated for 15 min. Then two baseline readings were taken before the biguanides were added at IC50/5. […] Rotenone (2 μM) was added at the end of the experiment. Data from wells with failed port injections were excluded from the analyses. The RCR values (state III versus state IV respiration) were 3.4, 4.8, and 4.6 for mouse heart, rat liver, and mouse liver, respectively.

The test system of another assay is rat liver mitochondria. Kind of assay: ADP-stimulated rotenone-sensitive OCR in isolated rat liver mitochondria. Format: biochemical. On the set-up: rotenone sensitive OCR after ADP stimulation, individual replicates / rotenone sensitive OCR after ADP stimulation, average: unit not given here. The note with it: for rotenone sensitive OCR after ADP stimulation, % of control, average / rotenone sensitive OCR after ADP stimulation, average: average of replicates; for rotenone sensitive OCR after ADP stimulation, % of control, individual replicates / rotenone sensitive OCR after ADP stimulation, individual replicates: replicate 1-5. As to the method: as §1
Isolated mitochondria were monitored using a Seahorse XF96 extracellular flux analyzer at 32 °C. Mouse heart mitochondria, and mouse and rat liver mitochondria were plated into XF96 plates at 4 and 16–20 μg per well, respectively, in 220 mM mannitol, 70 mM sucrose, 10 mM KH2PO4, 5 mM MgCl2, 1 mM EGTA, 0.2 % fatty acid-free BSA, and 2 mM HEPES (pH 7.4 at 37 °C) with 10 mM glutamate and 10 mM malate and adhered by centrifugation (2000 × g, 20 min, 4 °C). The medium was supplemented with a further 5 mM glutamate and 5 mM malate and the mitochondria incubated for 15 min. Then two baseline readings were taken before the biguanides were added at IC50/5. Biguanides were allowed to accumulate for 15–20 min before respiration was […] by the addition of 4 mM ADP. Rotenone (2 μM) was added at the end of the experiment. Data from wells with failed port injections were excluded from the analyses. The RCR values (state III versus state IV respiration) were 3.4, 4.8, and 4.6 for mouse heart, rat liver, and mouse liver, respectively.

[2] abbreviates: log of concentration in mM; sample given as Bovine heart mitochondrial membranes; Prism variable slope fit, Bottom 0, Top 100.
Where [3] appears, read: sample given as Bovine heart mitochondrial membranes; Prism variable slope fit, Bottom 0, Top 100.

Several values for one entry are separate records, joined by “and”; a condition that tells them apart may be missing. Equal values may be shown once. Read-outs that look alike come from different tables or passages of the source.

Chain of bovine heart mitochondrial membranes (complex I) (P42026 38-216): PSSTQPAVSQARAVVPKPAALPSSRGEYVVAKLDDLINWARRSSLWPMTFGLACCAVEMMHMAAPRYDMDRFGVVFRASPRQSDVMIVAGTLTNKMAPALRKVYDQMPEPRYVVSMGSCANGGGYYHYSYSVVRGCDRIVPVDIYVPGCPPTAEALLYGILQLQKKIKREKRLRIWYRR
Chain of bovine heart mitochondrial membranes (complex I) (P17694 34-463): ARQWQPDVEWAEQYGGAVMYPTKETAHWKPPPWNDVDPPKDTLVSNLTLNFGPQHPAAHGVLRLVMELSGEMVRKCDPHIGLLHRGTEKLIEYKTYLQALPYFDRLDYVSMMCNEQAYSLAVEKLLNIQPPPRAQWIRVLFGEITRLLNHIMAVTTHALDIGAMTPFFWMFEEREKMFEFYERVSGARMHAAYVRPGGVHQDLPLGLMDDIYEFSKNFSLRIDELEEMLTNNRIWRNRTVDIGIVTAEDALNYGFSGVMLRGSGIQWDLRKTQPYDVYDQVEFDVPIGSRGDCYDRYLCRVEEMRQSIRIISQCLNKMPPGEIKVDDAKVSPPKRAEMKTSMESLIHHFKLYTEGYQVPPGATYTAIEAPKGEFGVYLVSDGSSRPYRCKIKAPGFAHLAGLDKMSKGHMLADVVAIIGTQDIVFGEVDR
Chain of bovine heart mitochondrial membranes (complex I) (P03887 whole entry): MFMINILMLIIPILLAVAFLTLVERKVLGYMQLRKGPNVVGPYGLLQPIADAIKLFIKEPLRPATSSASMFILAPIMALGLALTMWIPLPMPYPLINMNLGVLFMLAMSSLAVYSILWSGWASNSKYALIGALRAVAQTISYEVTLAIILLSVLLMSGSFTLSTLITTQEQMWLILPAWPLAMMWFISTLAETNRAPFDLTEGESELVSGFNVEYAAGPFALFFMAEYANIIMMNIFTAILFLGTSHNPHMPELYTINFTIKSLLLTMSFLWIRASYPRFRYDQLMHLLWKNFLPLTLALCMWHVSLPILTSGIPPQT
Chain of bovine heart mitochondrial membranes (complex I) (P03898 whole entry): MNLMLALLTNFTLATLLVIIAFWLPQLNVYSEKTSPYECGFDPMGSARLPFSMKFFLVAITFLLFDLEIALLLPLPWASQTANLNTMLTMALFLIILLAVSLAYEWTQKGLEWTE

Consider `N=C(N)NC(N)=Nc1ccccc1` [compound 2, phenyl biguanide], for which the “LogIC50 (best fit value)” value in assay [1] (setting [2]) is -0.3757. Further, in assay [1] (read-out: IC50 (best fit value); sample given as Bovine heart mitochondrial membranes; Prism log(inhibitor) vs. response variable slope fit (four parameters), Bottom 0, Top 100), the IC50 (usually the point on the concentration scale where inhibition reaches its midpoint) came to 421 µM. Moreover, the “HillSlope (best fit value)” value in assay [1] (setting [3]) was -0.7595. Besides, in the assay with permeabilized MDBK cells, the “rotenone sensitive OCR after ADP stimulation, % of control, average” value (shortened to “rotenone sensitive OCR … % of control, average”) is 101.81 % of control and the “rotenone sensitive OCR after ADP stimulation, average” value was 286.92. In the assay with permeabilized MDBK cells (biguanide at IC50/5), the “rotenone sensitive OCR … % of control, average” value is 101.81 % of control; the “rotenone sensitive OCR after ADP stimulation, average” value is given as 286.92; the “rotenone sensitive OCR after ADP stimulation” value is 411.58 and 226.55 and 268.24 and 253.43 and 274.79; the “rotenone sensitive OCR after ADP stimulation, % of control” value is 146.05 % of control and 80.39 % of control and 95.18 % of control and 89.93 % of control and 97.51 % of control. Moreover, in the assay with mouse heart mitochondria, the “rotenone sensitive OCR … % of control, average” value is reported as 107.96 % of control; the “rotenone sensitive OCR after ADP stimulation, average” value was 261.48; the “rotenone sensitive OCR after ADP stimulation, % of control, individual replicates” value is 135.56 % of control and 93.15 % of control and 89.18 % of control and 125.36 % of control and 159.10 % of control and 52.24 % of control and 102.54 % of control and 106.56 % of control; the “rotenone sensitive OCR after ADP stimulation, individual replicates” value was 328.33 and 225.59 and 215.99 and 303.61 and 385.34 and 126.52 and 248.35 and 258.08. Further, in the assay on rat liver mitochondria, the “rotenone sensitive OCR … % of control, average” value is on record as 93.19 % of control; the “rotenone sensitive OCR after ADP stimulation, average” value worked out at 25.55; the “rotenone sensitive OCR after ADP stimulation, % of control, individual replicates” value was 95.39 % of control and 93.60 % of control and 90.74 % of control and 93.05 % of control; the “rotenone sensitive OCR after ADP stimulation, individual replicates” value was 26.15 and 25.66 and 24.88 and 25.51.

`NC(N)=NC(N)=NCc1ccccc1` [compound 3, 2-benzyl-1-(diaminomethylidene)guanidine]: in assay [1] (bovine heart mitochondrial membranes; inhibitor 0.05 mM; read-out: average % (rate, % of no-inhibitor control)), the remaining activity at 50 µM was determined as 88.7%. Also, the remaining activity at 120 µM in assay [1] (bovine heart mitochondrial membranes; inhibitor 0.12 mM; read-out: average % (rate, % of no-inhibitor control)) worked out at 76.2%. In addition, the remaining activity at 250 µM in assay [1] (bovine heart mitochondrial membranes; inhibitor 0.25 mM; read-out: average % (rate, % of no-inhibitor control)) amounted to 69.2%. Moreover, the remaining activity at 500 µM in assay [1] (bovine heart mitochondrial membranes; inhibitor 0.50 mM; read-out: average % (rate, % of no-inhibitor control)) amounted to 55.6%. Besides, in assay [1] (bovine heart mitochondrial membranes; inhibitor 1.25 mM; read-out: average % (rate, % of no-inhibitor control)), the remaining activity at 1250 µM came to 44.4%. The remaining activity at 2500 µM in assay [1] (bovine heart mitochondrial membranes; inhibitor 2.50 mM; read-out: average % (rate, % of no-inhibitor control)) is 37.2%. In assay [1] (bovine heart mitochondrial membranes; inhibitor 5.00 mM; read-out: average % (rate, % of no-inhibitor control)), the remaining activity at 5000 µM was found to be 31.2%. The “LogIC50 (best fit value)” value in assay [1] (setting [2]) is -0.01339. In addition, in assay [1] (sample given as Bovine heart mitochondrial membranes; Prism log(inhibitor) vs. response variable slope fit (four parameters), Bottom 0, Top 100; read-out: IC50 (best fit value)), the IC50 turned out to be 970 µM. Also, the “HillSlope (best fit value)” value in assay [1] (setting [3]) is listed as -0.5756. The “inhibition of OCR” value in the assay on permeabilized MDBK cells (MDBK cells, 30 min, data used for Fig. 4c matrix concentration estimate) is recorded as “exceeded 90%”. For the same compound, in the assay on permeabilized MDBK cells, the “rotenone sensitive OCR … % of control, average” value is 12.04 % of control and the “rotenone sensitive OCR after ADP stimulation, average” value is recorded as 33.92. In the assay on permeabilized MDBK cells (biguanide at IC50/5), the “rotenone sensitive OCR … % of control, average” value is given as 12.04 % of control; the “rotenone sensitive OCR after ADP stimulation, average” value is reported as 33.92; the “rotenone sensitive OCR after ADP stimulation” value is 60.28 and 86.89 and -11.73 and 15.23 and 8.14 and 44.74; the “rotenone sensitive OCR after ADP stimulation, % of control” value was 21.39 % of control and 30.83 % of control and -4.16 % of control and 5.40 % of control and 2.89 % of control and 15.88 % of control. The “accumulation into mitochondria (matrix concentration relative to extracellular medium)” value in the assay on permeabilized MDBK cells (permeabilized MDBK cells, after 30 min of biguanide exposure, IC50/5) is reported as “more than 200 fold”. In the assay with mouse heart mitochondria, the “rotenone sensitive OCR … % of control, average” value is 28.02 % of control; the “rotenone sensitive OCR after ADP stimulation, average” value is on record as 67.86; the “rotenone sensitive OCR after ADP stimulation, % of control, individual replicates” value was 41.93 % of control and 30.59 % of control and 30.48 % of control and 24.44 % of control and 22.36 % of control and 21.02 % of control and 20.43 % of control and 32.91 % of control; the “rotenone sensitive OCR after ADP stimulation, individual replicates” value is 101.56 and 74.09 and 73.82 and 59.18 and 54.16 and 50.90 and 49.48 and 79.71. Moreover, in the assay on rat liver mitochondria, the “rotenone sensitive OCR … % of control, average” value is 24.02 % of control; the “rotenone sensitive OCR after ADP stimulation, average” value was 6.59; the “rotenone sensitive OCR after ADP stimulation, % of control, individual replicates” value is 20.74 % of control and 19.21 % of control and 31.06 % of control and 25.09 % of control; the “rotenone sensitive OCR after ADP stimulation, individual replicates” value was 5.69 and 5.27 and 8.51 and 6.88.
